Data as given in patent publication US8197833B2, “Liquid concentrate for preserving cosmetics” (Air Liquide Sante (International), priority 1999, dated 2012).

Experiments:
Type in all cases: physicochemical
[1] = Compatibility with cosmetics additives (absence of precipitates and/or severe discolorations); conditions: Example 6B: up to 4 parts additive to 100 parts of 15% K sorbate, 30% Na benzoate, 5% phenoxyethanol, 50% water
[2] = as above; conditions: 18.75% water
Protocol: (§1) To 100 parts by weight of a preparation consisting of 18.75% by weight of K sorbate, 31.25% by weight of phenoxyethanol, 31.25% by weight of benzyl alcohol and 18.75% by weight of demineralized water were added, in individual experiments, up to 4 parts by weight of a number of cosmetics additives, and the compatibility was tested (test for absence of precipitates and/or severe discolorations). […] The above-mentioned preparation was incompatible with the antimicrobial active ingredients Vantocil IB (polyhexamethylene biguanide), bronopol and dibromodicyanobutane since in each case the addition of these active ingredients and storage led to severe discoloration of the solution.
as §1, with “of 15%” for “of 18.75%”, “sorbate, 30%” for “sorbate, 31.25%”, “of Na benzoate, 5%” for “of phenoxyethanol, 31.25%”, “of phenoxyethanol” for “of benzyl alcohol”, “and 50%” for “and 18.75%”, “The abovementioned” for “The above-mentioned”
A preparation consisting of 18.75% by weight of K sorbate, 28.75% by weight of benzyl alcohol, 28.75% by weight of phenoxyethanol, 18.75% by weight of demineralized water and 5% by weight of cosmetics additive was prepared.

[3] = Colour stability, Hazen colour number; conditions: addition to liquid concentrates, Examples 5D-5F
Protocol: The Hazen colour number is the number of mg of platinum [as potassium hexachloroplatinate (IV) containing cobalt (II) chloride hexahydrate in a ratio of 1.246:1 dissolved in 1000 ml of aqueous hydrochloric acid] which has virtually the same colour as the sample when the path length is the same.
Improvement in the Colour Stability of the Liquid Concentrates According to the Invention

[4] = Example 6A: up to 4 parts additive to 100 parts of 18.75% K sorbate, 31.25% phenoxyethanol, 31.25% benzyl alcohol
[5] = Example 6C: 5% additive in 18.75% K sorbate, 28.75% benzyl alcohol, 28.75% phenoxyethanol

| Compound | compatibility of additive with preparation [1] | compatibility of additive with preparation [2, 4] | compatibility of additive with preparation [2, 5] | effect of additive on colour stability [3] |
| --- | --- | --- | --- | --- |
| OCCc1ccccc1 [phenethyl alcohol] | sufficiently compatible | sufficiently compatible | – | – |
| CC1(C)C(=O)N(CO)C(=O)N1CO [Glydant XL 1000, 1,3-dimethylol-5,5-dimethylhydantoin] | sufficiently compatible | sufficiently compatible | – | – |
| benzalkonium chloride | sufficiently compatible | sufficiently compatible | – | – |
| COc1ccc(O)c(C(C)(C)C)c1 [3-tert-butyl-4-hydroxyanisole] | sufficiently compatible | sufficiently compatible | – | – |
| N#CCCC(Br)(C#N)CBr (stereo not drawn) [dibromodicyanobutane] | incompatible | incompatible | – | – |
| vitamin E | sufficiently compatible | sufficiently compatible | – | – |
| O=C([O-])C(O)c1ccccc1.[K+] (stereo not drawn) [potassium salt of mandelic acid] | sufficiently compatible | sufficiently compatible | – | – |
| O=[N+]([O-])C(Br)(CO)CO [bronopol] | incompatible | incompatible | – | – |
| Cl/C=C\C[N+]12CN3CN(CN(C3)C1)C2.[Cl-] [Dowicil 200] | – | – | sufficiently compatible | – |
| OCCCc1ccccc1 [3-phenyl-1-propanol] | sufficiently compatible | sufficiently compatible | – | – |
| CC(C)=CCCC(C)=CCCC(C)=CCO [farnesol] | sufficiently compatible | sufficiently compatible | – | – |
| COC(=O)c1ccc(O)cc1 [methylparaben] | – | – | sufficiently compatible | – |
| O=C1O[C@H]([C@@H](O)CO)C([O-])=C1O.[Na+] [sodium ascorbate] | sufficiently compatible | sufficiently compatible | – | – |
| Cc1cc(C(C)(C)C)c(O)c(C(C)(C)C)c1 [2,6-di-tert-butyl-p-cresol] | sufficiently compatible | sufficiently compatible | – | – |
| CCOC(=O)c1ccc(O)cc1 [ethylparaben] | sufficiently compatible | sufficiently compatible | – | – |
| CC(C)(CO)[C@@H](O)C(=O)NCCCO [dexpanthenol] | sufficiently compatible | sufficiently compatible | – | – |
| CCCOC(=O)c1ccc(O)cc1 [propylparaben] | – | – | sufficiently compatible | – |
| CCCCNC(=O)OCC#CI [iodopropynylbutyl carbamate] | sufficiently compatible | sufficiently compatible | – | – |
| O=C1O[C@H]([C@@H](O)CO)C(O)=C1O [ascorbic acid] | sufficiently compatible | sufficiently compatible | – | – |
| O=C([O-])CC(O)(CC(=O)[O-])C(=O)[O-].[Na+].[Na+].[Na+] [sodium citrate] | – | – | – | significantly improves the colour stability |
